Results: patent US6656022B2, “Method for polishing a semiconductor substrate member” (Hitachi, Ltd., priority 2001, dated 2003)
Read-outs that look alike come from different tables or passages of the source.

Experiment: Solubility of abrasive-grain material at normal temperature
Type: physicochemical
[1] = abrasive-grain material, normal temperature (25° C.)

Which Solubility [1] does the source give for `O=S(=O)([O-])[O-].O=S(=O)([O-])[O-].O=S(=O)([O-])[O-].[Ce+3].[Ce+3]` [Example 4, Ce2(SO4)3] here?
The Solubility was 7.59%.

For `O=S(=O)([O-])[O-].[Cu+2]` [Example 6, CuSO4], which Solubility is on record?
The Solubility was 18.2%.

With `[Cl][Cu][Cl]` [Example 5, CuCl2] as the molecule, how does the Solubility [1] read?
The Solubility was 42.8%.

For `O=C(O)CC(=O)O` [Example 12, malonic acid], which Solubility [1] is on record?
Its Solubility is 32.2%.

For `OC[C@H]1O[C@@](CO)(O[C@H]2O[C@H](CO)[C@@H](O)[C@H](O)[C@H]2O)[C@@H](O)[C@@H]1O` [Example 11, sucrose], which Solubility [1] is on record?
Its Solubility is 67.0%.
